Source: ChEMBL document CHEMBL1151606, “Relationship of structure of bridged (2,6-dimethyl-4-pyridinyl)quinolones to mammalian topoisomerase II inhibition” (Bioorg Med Chem Lett, 1993)

Assays:
DNA topoisomerase II = DNA topoisomerase II (Homo sapiens, UniProt P11388+Q02880); assay: Tested for inhibitory activity against Topoisomerase II isolated from HeLa cells by using SDS-K+ precipitation method; assay type: cell-based
Mus musculus [1] = assay: Tested for the increased life span (ILS) in murine leukemia model (in which P388 administered intraperitoneally), at a concentration of 1014 mg/kg; assay type: functional; conditions: P388, ip, route intraperitoneal
Mus musculus [2] = assay: Tested for the increased life span (ILS) in murine leukemia model (in which P388 administered intraperitoneally), at a concentration of 180 mg/kg; assay type: functional; conditions: P388, ip, route intraperitoneal

| EC50 (DNA topoisomerase II) [µM] | Structure (SMILES) | ILS at 1014 mg/kg (Mus musculus [1]) [%] | ILS at 180 mg/kg (Mus musculus [2]) [%] |
| --- | --- | --- | --- |
| 150 | Cc1cc(-c2c(F)cc3c(=O)c(C(=O)O)cn4c3c2OCC[C@@H]4C)cc(C)n1 | – | – |
| 57 | C[C@H]1COc2c(-c3ccncc3)c(F)cc3c(=O)c(C(=O)O)cn1c23 | – | – |
| 31 | Cc1cc(-c2c(F)cc3c(=O)c(C(=O)O)cn4c3c2OC[C@@H]4C)cc(C)n1 | – | – |
| 730 | Cc1cc(-c2c(F)cc3c(=O)c(C(=O)O)cn4c3c2NC[C@@H]4C)cc(C)n1 | – | – |
| > 130 | Cc1cc(-c2c(F)cc3c(=O)c(C(=O)O)cn4c3c2OCC42CC2)cc(C)n1 | – | – |
| 510 | Cc1cc(-c2c(F)cc3c(=O)c(C(=O)O)cn4c3c2OCC4(C)C)cc(C)n1 | – | – |
| 50 | Cc1cc(-c2c(F)c(F)c3c(=O)c(C(=O)O)cn4c3c2OC[C@@H]4C)cc(C)n1 | – | – |
| > 570 | CCn1cc(C(=O)O)c(=O)c2cc(F)c(-c3cc(C)nc(C)c3)cc21 | – | – |
| 58 | C[C@H]1COc2c(-c3ccc4cnccc4c3)c(F)cc3c(=O)c(C(=O)O)cn1c23 | – | – |
| 62 | Cc1cc(-c2c(F)cc3c(=O)c(C(=O)O)cn4c3c2[S+]([O-])C[C@@H]4C)cc(C)n1 (stereo partly drawn) | – | – |
| 420 | CC[C@H]1COc2c(-c3cc(C)nc(C)c3)c(F)cc3c(=O)c(C(=O)O)cn1c23 | – | – |
| > 260 | Cc1cc(-c2c(F)cc3c(=O)c(C(=O)O)cn4c3c2SC[C@H]4C)cc(C)n1 | – | – |
| > 290 | Cc1cc(-c2ccc3c(=O)c(C(=O)O)cn4c3c2OC[C@@H]4C)cc(C)n1 | – | – |
| > 540 | Cc1cc(-c2c(F)cc3c(=O)c(C(=O)O)cn4c3c2OC[C@H]4C)cc(C)n1 | – | – |
| > 560 | Cc1cc(-c2c(F)cc3c(=O)c(C(=O)O)cn4c3c2OCC4)cc(C)n1.Cl | – | – |
| – | COc1cc([C@@H]2c3cc4c(cc3C(O[C@@H]3O[C@@H]5CO[C@@H](C)O[C@H]5[C@H](O)[C@H]3O)C3COC(=O)[C@@H]32)OCO4)cc(OC)c1O (single isomer, unassigned) [ETOPOSIDE] | – | 220 |

| Structure (SMILES) | EC50 (DNA topoisomerase II) [µM] | ILS at 1014 mg/kg (Mus musculus [1]) [%] | ILS at 180 mg/kg (Mus musculus [2]) [%] |
| --- | --- | --- | --- |
| Cc1cc(-c2c(F)cc3c(=O)c(C(=O)O)cn4c3c2SC[C@@H]4C)cc(C)n1 | 9.4 | 90 | – |
